From patent publication US8835510B2, “Methods and compositions for treating conditions mediated by oxidative stress or electrophilic environmental toxins” (priority 2010, dated 2014)
Entries after “also recorded” stand apart in the source; their conditions may differ.

How the values were obtained:
[1] = Cell viability (trypan blue) in H2O2-exposed MN9D cultures; conditions: mouse, MN9D cells
Method: (§1) As a more complex biological model, a determination was made of the relative abilities of the 1,3-dicarbonyls to protect MN9D cells, a dopaminergic cell line, from acrolein- (FIG. 6) or hydrogen peroxide (H2O2)-induced cell death (FIG. 7). Briefly, two days after plating, cells were incubated with AcAc (750 μM) for one hr followed by exposure to graded concentrations of either acrolein (0.50-150 μM×24 hrs) or H2O2 (50-750 μM×24 hrs). Cell viability was determined by trypan blue (0.1%) exclusion. Living cells were counted in a hemocytometer and total cells per dish were calculated.
(§2) This system represents a more complete model of oxidative stress since the hydroxyl radical formed from intracellular H2O2 during the Fenton reaction, subsequently mediates the generation of toxic aldehyde by-products such as acrolein and 4-hydroxy-2-nonenal (HNE).

MN9D cells [2] = experiment: Cytotoxicity of test compound alone in MN9D cultures; conditions: 100 μM
[3] = as above; conditions: mouse, MN9D cells
[4] = Free radical scavenging (DPPH absorbance method of Ak and Gulcin)
Method: The relative abilities of selected 1,3-dicarbonyl compounds to scavenge free radicals were determined using the spectrophotometric method of Ak and Gulcin (2008)^4 that measures changes in the absorbance of the 2,2-diphenyl-1-picrylhydrazyl radical.

[5] = tested on: control striatal synaptosomes; experiment: In vitro toxicity: radiolabeled dopamine (DA) membrane transport in control striatal synaptosomes; conditions: FIG. 4
MN9D cells [6] = experiment: Cell viability (trypan blue) in H2O2-exposed MN9D cultures; conditions: test compound 750 μM (phloretin 100 μM)
Method: as §1, §2

[7] = pKa and enolate ionization of enol compounds; format: physicochemical
[8] = Ferrous ion chelation (method of Dairam et al.)
MN9D cells [9] = experiment: Cell viability (trypan blue) in acrolein-exposed MN9D cultures; conditions: pre-incubation 60 minutes, 750 μM each (phloretin 100 μM)
Method: as §1

[10] = Kinetic assay of acrolein-induced N-acetyl cysteine (NAC) sulfhydryl loss (DTNB method)
Source text: As an index of cytoprotection, these studies focused on the abilities of 1,3-dicarbonyl compounds to prevent electrophile-induced loss of protein and non-protein sulfhydryl groups. This experimental focus is based on substantial evidence that soft electrophiles, like acrolein, produce toxicity by forming Michael-type adducts with soft nucleophilic thiolate (anionic sulfhydryl) groups on functionally critical proteins^9, 17, 22, 56, 57 (reviewed in^28, 58, 62, 77, 94). […] To test this hypothesis, a determination was made of the ability of AcAc and other structurally related enol analogs to prevent sulfhydryl (nucleophile) adduction by acrolein (electrophile)^56. […] Free sulfhydryl concentrations were determined over time (up to 15 mins) by the DTNB method of LoPachin et al.^52.
Therefore, as a kinetic index of competitive thiol protection by enolate sequestration, the relative in vitro abilities of 1,3-dicarbonyl compounds and phloretin to slow the rate of acrolein-induced sulfhydryl loss were measured.

Structure (SMILES)	CC50 at 24 h [1]	MN9D cell death / cell loss by compound alone (MN9D cells [2])	MN9D cell death / cell loss by compound alone (MN9D cells [2]; listed as Phloretin)	CC50 [3]	DPPH radical scavenging [4]	synaptosomal toxicity of compound alone, DA transport (words, IC50 magnitude) [5]	protection against H2O2-induced cell death (MN9D cells [6])	pKa [7]	Fe^2+ chelating activity [8]	protection against acrolein-induced cell death (words) (MN9D cells [9])	protection against acrolein-induced cell death (words) (MN9D cells [9]; listed as Phloretin)	rate of sulfhydryl loss (mean rate±SE) ([10]; NAC + acrolein 150 μM + test compound 50 μM co-incubated, Krebs buffer pH 7.4, 30° C.)	sulfhydryl (NAC) protection, pre-incubation ([10]; acrolein pre-incubated with test compound, NAC added one hour later)	sulfhydryl (NAC) protection, co-incubation ([10]; all chemicals added simultaneously)
OO [H2O2, hydrogen peroxide]	254 µM	–	–	–	–	–	–	–	–	–	–	–	–	–
O=C(CCc1ccc(O)cc1)c1c(O)cc(O)cc1O [phloretin, reference compound]	–	~50%	42%	362 µM	relatively weak DPPH. scavengers	relatively significant in vitro toxicity; also recorded: significant synaptosomal toxicity	potentiated H2O2 toxicity	7.3	little, if any, Fe^2+ chelating activity	did not protect	did not provide cytoprotection	−1.9±0.7 nmol SH sec^−1	significant thiol protection	only marginally protective
